# pKi: −log10 of the molar value.
# Tests used:
# [1] = Hill coefficient of the compound; type: ADME
# [2] = target: T1, 5-hydroxytryptamine receptor 1A (Rattus norvegicus, UniProt P19327); experiment: Binding affinity towards 5-hydroxytryptamine 1A receptor by the displacement of [125I]trans-8-OH-PIPAT in membrane homogenates of hippocampal tissue of rat brain; type: tissue-based, Hippocampus
# T1 sequence (P19327 whole entry): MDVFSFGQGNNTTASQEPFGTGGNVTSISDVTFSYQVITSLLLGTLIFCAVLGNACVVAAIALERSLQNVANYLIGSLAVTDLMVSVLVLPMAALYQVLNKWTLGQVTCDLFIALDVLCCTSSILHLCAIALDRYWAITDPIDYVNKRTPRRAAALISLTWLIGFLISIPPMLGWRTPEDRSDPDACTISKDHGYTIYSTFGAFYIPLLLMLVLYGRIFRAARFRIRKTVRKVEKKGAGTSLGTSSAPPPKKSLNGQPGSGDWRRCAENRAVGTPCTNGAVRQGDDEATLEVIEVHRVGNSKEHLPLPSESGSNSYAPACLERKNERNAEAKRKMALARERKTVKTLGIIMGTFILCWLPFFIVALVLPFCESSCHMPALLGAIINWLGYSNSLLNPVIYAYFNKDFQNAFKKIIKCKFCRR
# D(2) dopamine receptor = D(2) dopamine receptor (Homo sapiens, UniProt P14416); experiment: Inhibitory activity against [125I]- NCQ298 binding to dopamine receptor D2 in Sf 9 cells; type: cell-based
# Chain of D(2) dopamine receptor (P14416 whole entry): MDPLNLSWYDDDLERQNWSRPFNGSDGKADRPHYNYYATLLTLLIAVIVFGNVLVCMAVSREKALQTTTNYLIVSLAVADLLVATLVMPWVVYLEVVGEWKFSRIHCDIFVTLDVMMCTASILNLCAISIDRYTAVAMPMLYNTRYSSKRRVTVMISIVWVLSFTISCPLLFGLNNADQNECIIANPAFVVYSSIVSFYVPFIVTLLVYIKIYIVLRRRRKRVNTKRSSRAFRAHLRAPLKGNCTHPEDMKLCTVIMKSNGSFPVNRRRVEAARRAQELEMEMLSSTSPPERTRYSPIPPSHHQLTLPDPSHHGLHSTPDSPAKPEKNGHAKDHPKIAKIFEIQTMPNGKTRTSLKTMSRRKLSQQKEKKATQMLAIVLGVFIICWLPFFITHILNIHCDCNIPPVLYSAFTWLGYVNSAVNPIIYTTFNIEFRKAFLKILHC
# D(3) dopamine receptor = D(3) dopamine receptor (Rattus norvegicus, UniProt P19020); experiment: Inhibitory activity against [125I]- NCQ298 binding to dopamine receptor D3 in Sf 9 cells; type: cell-based
# Chain of D(3) dopamine receptor (P19020 whole entry): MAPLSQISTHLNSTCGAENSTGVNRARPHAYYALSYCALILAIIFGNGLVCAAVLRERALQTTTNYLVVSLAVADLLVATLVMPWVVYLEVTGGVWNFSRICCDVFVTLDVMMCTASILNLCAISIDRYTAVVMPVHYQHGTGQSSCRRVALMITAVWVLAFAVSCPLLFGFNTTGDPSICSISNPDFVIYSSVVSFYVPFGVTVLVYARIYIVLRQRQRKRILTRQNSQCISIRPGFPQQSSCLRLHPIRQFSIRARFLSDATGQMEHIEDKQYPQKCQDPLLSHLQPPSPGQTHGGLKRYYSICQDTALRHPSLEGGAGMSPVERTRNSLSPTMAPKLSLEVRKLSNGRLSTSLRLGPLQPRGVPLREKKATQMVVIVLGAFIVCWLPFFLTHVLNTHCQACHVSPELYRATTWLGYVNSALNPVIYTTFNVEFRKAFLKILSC
# Rattus norvegicus = species on record: Rattus norvegicus; experiment: Inhibitory activity against (125I)-(R,S)-trans-8-OH-PIPAT binding to the rat hippocampal homogenate; type: functional, Hippocampus
Structure (SMILES),Hill coefficient [1],pKi [2],other results
CC(C)NCC(O)COc1cccc2ccccc12 (racemic) [PROPRANOLOL],0.99,–,–
O=C(CCCN1CCC2(CC1)C(=O)NCN2c1ccccc1)c1ccc(F)cc1 [SPIPERONE],0.86,6.22,–
O=C(c1ccc(F)cc1)C1CCN(CCn2c(=O)[nH]c3ccccc3c2=O)CC1 [KETANSERIN],1.04,–,–
CCCN(C/C=C/I)C1CCc2cccc(O)c2C1 (racemic),0.85,9.52,pKi (D(2) dopamine receptor): 5.97; pKi (D(3) dopamine receptor): 6.90
NCCc1ccc(O)c(O)c1 [DOPAMINE],–,< 5.00,–
CCCN(CCC)C1CCc2ccc(O)cc2C1 (racemic),0.82,7.14,–
COc1cccc(OC)c1OCCNCC1COc2ccccc2O1 (configuration not stated),–,8.57,–
CCCN(C/C=C/I)C1CCc2ccc(O)cc2C1 (racemic),0.9,–,–
NCCc1c[nH]c2ccc(O)cc12 [SEROTONIN],1.04,–,–
CCCN(CCC)C1CCc2cccc(O)c2C1 (racemic) [8-OH-DPAT],0.83,–,pKi (D(3) dopamine receptor): 6.60; pKi (Rattus norvegicus): 9.04

# Reference: ChEMBL document CHEMBL1126858, “Synthesis of (R,S)-trans-8-hydroxy-2-[N-n-propyl-N-(3'-iodo-2'-propenyl)amino]tetral in (trans-8-OH-PIPAT): a new 5-HT1A receptor ligand” (J Med Chem, 1993)
